From PMC9962304, “Insightful Improvement in the Design of Potent Uropathogenic E. coli FimH Antagonists” (Pharmaceutics, 2023)
“Also recorded” adds a separate entry of the source.

Key:
[1] = tested on: strain CFT073 adhesion to HTB-9 cells; assay: Bacterial adhesion assay on bladder cell monolayers; type: cell-based, Escherichia coli / human; conditions: for efficiency at reducing FimH-mediated bacterial adherence (result in words): 500 μM, HTB-9 cells, CFT073
Description: To evaluate the efficacy of the synthetic mannoside antagonists to inhibit the ability of CFT073 strain to adhere to epithelial cells, an in vitro adhesion assay was performed. For this purpose, equal amounts of strain CFT073 strain were inoculated in PBS supplemented with different concentrations of each mannoside at final concentrations of 100, 500 μM, and 1 mM and incubated for 3h under static conditions. Bacterial inoculation was used to infect cell line 5637 (HTB-9 cell) monolayers at a multiplicity of infection (MOI) of 10. At 2.5 h post-infection, the number of cell-associated bacteria was calculated by CFU/mL counting (Figure 9). No significant inhibition of bacterial adhesion to bladder cells was obtained using mannoside inhibitors at 100 µM. Conversely, a significant reduction (more than 1 log) in the number of adherent bacteria was observed by increasing the concentration of the mannosides to 500 μM in comparison to non-treated bacteria (Figure 10). The same extent of reduction in bacterial adhesion to bladder cells was obtained by increasing mannosides concentration to 1 mM, thereby showing a dose-dependent effect. […] To appraise qualitatively the reduction of bacterial adhesion, parallel infected cells were fixed, and Giemsa stained.
HTB-9 cells were routinely seeded in cell culture plates and maintained 2–4 days at 37 °C in a humidified atmosphere containing 5% CO2. For the adhesion assay, cells were seeded in 35 mm tissue culture plates at a density of 1 × 10^5 cells/well and incubated at 37 °C for 48 h to reach confluency. CFT073 was grown in LB under mild shaking conditions overnight and resuspended in phosphate buffer (PBS) to an inoculum of ~10^6 CFU/mL (normalized according to OD600). Each mannoside molecule was added to CFT073 inoculant at the final concentrations of 100, 500 μM and 1 mM and incubated for 3 h in static conditions. […] Images were recorded with a Leica DM5000B microscope equipped with DFX340/DFX300 camera and processed using the Leica Application Suite 2.7.0.R1 software (Leica).

[2] = biological target: T1, FimH lectin domain (amino acids 1-158) (Escherichia coli, UniProt P08191); assay: biochemical; type: binding, E. coli; conditions: for IC50: IC50, competitive inhibition of biotinylated Man-BSA binding to coated FimH lectin; for RIP (relative inhibitory potency): relative to reference MeMan, 23
T1 construct: using a FimH lectin domain (amino acids 1-158) LEctPROFILE kit (provided by GLYcoDiag); purchased GLYcoDiag (Orléans, France)
Description: To measure the relative binding affinity of the newly synthesized compounds 11, 20, and 18 against FimH, the usual referenced standards were used for comparison with previously published data: heptyl α-D-mannopyranoside (HepMan, 21), para-nitrophenyl α-D-mannopyranoside (PNPMan, 22), and methyl α-D-mannopyranoside (MeMan, 23). The relative inhibitory potential of the above compounds was determined against a biotinylated Man-BSA conjugate using a FimH lectin domain (amino acids 1-158) LEctPROFILE kit (provided by GLYcoDiag) (Figure 1, Table 1).
FimH LEctPROFILE kit assays from GLYcoDiag (Orléans, France) were performed according to GlycoDiag’s protocol already described. Briefly, the interaction profiles of each compound were determined through a competitive inhibition assay based on the inhibition by the compounds of the interaction between FimH lectin coated onto the microplate surface and a biotinylated neoglycoprotein NeoM (Man-BSA) as a tracer. A mix of biotinylated Man-BSA (fixed concentration) and the corresponding compounds (range of concentrations) prepared in PBS supplemented with 1 mM CaCl2 and 0.5 mM MgCl2 was deposited in each well (50 µL each) in triplicate and incubated for two hours at room temperature. After washing with PBS buffer, the conjugate streptavidin-DTAF (dichlorotriazinylamino fluorescein) was added (50 µL) and incubated 30 min more. The plate was washed again with PBS. Finally, 100 µL of PBS was added for the readout of fluorescent plate performed with a fluorescence reader (Pherastar microplate reader, BMG labtech, λex = 485 nm, λem = 530 nm). The signal intensity is inversely correlated with the capacity of the compound to be recognized by the lectin and expressed as inhibition percentage with comparison with the corresponding tracer alone. Data analysis was performed with GraphPadPrism software (version 5.03 for windows, San Diego, CA, USA). 50% inhibitory concentration (IC50) was determined according to a standard dose-response/inhibition fitting model with the following equation: y = 100 / (1 + [inhibitor]/IC50) and expressed in nanomolar units.

E. coli FimH = tested on: E. coli FimH; parameters: method as in PMID 28671638; conditions: unit inferred; previous work; cited from earlier work
UPEC strain CFT073 = assay: Mannosides as carbon source, CFU/mL counting in PBS; type: cell-based, Escherichia coli; conditions: 24 h, 37 °C, 500 μM (D-mannose also 83 mM)
Description: To test whether the above mannoside derivatives could exert bactericidal and/or cytotoxic activities, bacterial growth and cell viability assays were undertaken in the presence of each mannoside at different concentrations. Natural D-mannose (D-Man) was included as control. […] Moreover, no cytotoxic effect was recorded for urinary bladder cell line 5637 (HTB-9 cell) monolayers, as measured by the MTT test (Figure 6). Since D-mannose can serve as nutrient replacement for E. coli when there is a shortage of D-glucose, we tested whether these new derivatives could be used as carbon sources as well [5]. […] Bacteria were incubated for an additional 24 h in the absence and in the presence of different mannosides and the number of viable bacteria was assessed by CFU/mL counting. […] Since carbohydrates can influence the activity of conventional antibiotics, the activity of different classes of antibiotics such as ampicillin (AMP 30 μg/mL), streptomycin (SM 50 µg/mL), and gentamycin (GM 50 µg/mL) in the presence of the synthetic mannoside analogs was evaluated.
Mannosides dissolved in dimethyl sulfoxide DMSO or water at a final concentration of 5 mM were prepared. […] Readings of culture turbidity (OD600) were determined using a plate reader (POLARstar Omega BMG Labtech plate reader, Germany). […]

T1 sequence (P08191 22-179): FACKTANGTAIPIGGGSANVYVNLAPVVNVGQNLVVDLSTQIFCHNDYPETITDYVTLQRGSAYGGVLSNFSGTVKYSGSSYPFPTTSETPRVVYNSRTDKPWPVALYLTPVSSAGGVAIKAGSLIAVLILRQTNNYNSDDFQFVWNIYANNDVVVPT

Compound | efficiency at reducing FimH-mediated bacterial adherence (result in words) [1] | IC50 [2] [nM] | RIP (relative inhibitory potency) [2] | Kd (E. coli FimH) [nM] | lower concentration than natural D-mannose for same extent of bacterial adhesion inhibition ([1]; compared with natural D-mannose) [fold] | number of viable bacteria (CFU/mL) compared to non-treated control (UPEC strain CFT073)
OC[C@H]1O[C@H](C/C=C/c2ccc3ncccc3c2)[C@@H](O)[C@@H](O)[C@@H]1O [Compound 11] | most efficient; also recorded: better potency in inhibiting bacterial adhesion | 3.17 ± 2.3 | 887 | – | – | –
OC[C@H]1O[C@H](C/C=C/c2ccc(-c3ccccc3)cc2)[C@@H](O)[C@@H](O)[C@@H]1O [Compound 18] | – | 30.3 ± 9 | 93 | 17 ± 3.5 | – | –
OC[C@H]1O[C@H](C/C=C/c2ccccc2-c2ccncc2)[C@@H](O)[C@@H](O)[C@@H]1O [Compound 20] | – | 0.82 ± 0.4 | 3428 | – | – | –
CCCCCCCO[C@H]1O[C@H](CO)[C@@H](O)[C@H](O)[C@@H]1O [Compound 21, heptyl α-D-mannopyranoside] | – | 19.4 ± 5.2 | 145 | – | – | –
O=[N+]([O-])c1ccc(O[C@H]2O[C@H](CO)[C@@H](O)[C@H](O)[C@@H]2O)cc1 [Compound 22, para-nitrophenyl α-D-mannopyranoside] | – | 74.1 | 38 | – | – | –
CO[C@H]1O[C@H](CO)[C@@H](O)[C@H](O)[C@@H]1O [Compound 23, methyl α-D-mannopyranoside] | less efficient | 2810 | 1 | – | 164 | –
OC[C@H]1OC(O)[C@@H](O)[C@@H](O)[C@@H]1O (stereo partly drawn) [D-mannose] | – | – | – | – | – | supports the growth; also recorded: increased significantly
